What was measured:
[1] = Acute toxicity (LD50) in mice; conditions: mouse, in vivo, substantially pure Z-isomeric form
human monocytes = assay: Effect on the secretion of monokines (IL-1, TNF-α, IL-6); format: cell-based; conditions: IL-1 and TNF-α by RIA, IL-6 by bioassay
Protocol: Besides IL-1, TNF-α and IL-6 are two well recognized monokines that are released from stimulated monocytes.
Culture media from human monocytes are prepared as described above. The IL-1 and TNF-α content is monitored by the RIA-test, IL-6 by bioassay as disclosed below.
To measure IL-6 in conditioned media from human monocytes, 2.4×10^4 cells/ml B13.29 in 0.2 ml are cultured on 96-well plates (Costar) for 48 h with culture media, diluted in serum free Iscove's modified Dulbecco's medium supplemented with 200 U/ml of recombinant IL-6, 50 μM 2-mercaptoethanol and antibiotics. The proliferation rates are determined using a ^3 H-thymidine pulse (1 μC/well) during the final 6 h. The incorporated radioactivity is collected on filter paper, counted and related to a standard preparation of IL-6.

IL-1 = assay: Effect on IL-1 synthesis and release (supernatants, homogenates, lysates of human monocytes); format: cell-based; conditions: chondrocyte bioassay and RIA
Protocol: 0.3 ml Phosphate-buffered saline, containing 1 % heat-in-activated AB-human serum, is added to washed adherent human monocytes and the cells are detached using a rubber-policeman. The solution containing the cells is then transferred to two other wells belonging to the same group. This procedure is repeated three times. The final pooled suspension (0.9 ml) is homogenized using a Dounce homogenizer (Kontes Co, Vineland, NJ) by five times 7 strokes with the B-pestle.
The lysate is prepared by adding to the washed human monocyte monolayers 0.3 ml 0.01 % digitonin in water.
50 μl homogenate is diluted to 500 μl with medium and added to confluent chondrocytes to monitor the metalloproteinase inducing activity as a measure of IL-I content.
The content of IL-1 was also determined in the culture media and the cell homogenates and cell lysates using the RIA-test (see 1.3.).

SMILES: COC1=Cc2ccccc2/C(=C/C(=O)O)c2ccsc21 [Compound D2, [10-Methoxy-4H-benzo[4,5]cyclohepta[1,2-b]thiophen-4-ylidene]-acetic acid]
- LD50 at 168 h ([1]; iv, 7 days): 163 mg/kg
- LD50 at 336 h ([1]; po, 14 days): 1620 mg/kg
- inhibition of release of IL-1 compared with IL-6 and TNF-α (human monocytes): inhibit the release of IL-1 in a more significant rate than that of IL-6 and TNF-α
- levels of IL-1 in the supernatant media (IL-1): significantly reduce the levels of IL-1 in the supernatant media
- mean cellular content of IL-1 (IL-1; homogenates and lysates): only slightly reduced or remains unchanged

From patent publication US4956381A, “Treating tissue calcium depletion or degenerative processes in bone or cartilage” (Sandoz Ltd., priority 1987, dated 1990)
